Reference: US20260347346A1, “SUBSTITUTED 6-(PYRIMIDIN-4-YL)QUINOLINE COMPOUNDS AS CYCLIN DEPENDENT KINASE INHIBITORS” (BeOne Medicines I GmbH, priority 2022, published 2026)

Assays:
CDK4/Cyclin D1 = CDK4/Cyclin D1 (Homo sapiens, UniProt P11802); assay: inhibition of CDK4/Cyclin D1 kinase, TR-FRET; format: biochemical; settings: CDK4/Cyclin D1, 1 mM ATP, 0.15 μM Rb (Ser780)-biotin substrate, pH 7.0, 60 min preincubation, 120 min reaction, room temperature; read-out: CDK4D1 IC50
Procedure: (§1) Compounds disclosed herein were tested for inhibition of CDK4/Cyclin D1 or CDK6/Cyclin D3 kinase in an assay based on the time-resolved fluorescence-resonance energy transfer (TR-FRET) methodology. The assay was carried out in 384-well low volume black plates in a reaction mixture containing CDK4/Cyclin D1 or CDK6/Cyclin D3, 1 mM ATP, 0.15 μM Rb (Ser780)-biotin substrate and 0-10 μM compound in buffer containing 50 mM HEPES pH7.0, 0.02% NaN3, 0.01% BSA, 0.1 mM Orthovanadate, 50 mM MgCl2, 1 mM DTT and 0.005% Tween-20. The kinase was incubated with compound for 60 minutes at room temperature and the reaction was initiated by the addition of ATP and Rb (Ser780)-biotin substrate. After reaction at room temperature for 120 minutes, an equal volume of stop/detection solution was added according to the manufacture's instruction (Cisbio Bioassays). The stop/detection solution contained Streptavidin-XL665 and Anti-pRb (Ser780) mAb-Eu Cryptate in Detection buffer (Cisbio Bioassays). Plates were incubated at room temperature for 60 minutes, and the TR-FRET signals (ex337 nm, em665 nm/620 nm) were recorded on a PHERAstar FSX plate reader (BMG Labtech). The inhibition percentage of CDK4/Cyclin D1 or CDK6/Cyclin D3 kinase activity in presence of increasing concentrations of compounds was calculated based on the ratio of fluorescence at 665 nm to that at 620 nm. The IC50 for each compound was derived from fitting the data to the four-parameter logistic equation by Dotmatics.

CDK6/Cyclin D3 = CDK6/Cyclin D3 (Homo sapiens, UniProt Q00534); assay: inhibition of CDK6/Cyclin D3 kinase, TR-FRET; format: biochemical; settings: CDK6/Cyclin D3, 1 mM ATP, 0.15 μM Rb (Ser780)-biotin substrate, pH 7.0, 60 min preincubation, 120 min reaction, room temperature; read-out: CDK6D3 IC50
Procedure: as §1

Chain of CDK6/Cyclin D3 (Q00534 whole entry): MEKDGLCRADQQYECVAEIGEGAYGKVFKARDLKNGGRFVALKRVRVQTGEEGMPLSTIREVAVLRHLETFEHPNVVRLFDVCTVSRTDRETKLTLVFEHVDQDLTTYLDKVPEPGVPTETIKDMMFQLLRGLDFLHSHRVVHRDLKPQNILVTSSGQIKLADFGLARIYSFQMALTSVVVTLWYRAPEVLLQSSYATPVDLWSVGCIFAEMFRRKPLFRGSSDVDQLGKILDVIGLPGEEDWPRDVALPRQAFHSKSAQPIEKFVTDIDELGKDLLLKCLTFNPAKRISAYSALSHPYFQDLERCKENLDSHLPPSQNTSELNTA
Chain of CDK6/Cyclin D3 (P30281 whole entry partner): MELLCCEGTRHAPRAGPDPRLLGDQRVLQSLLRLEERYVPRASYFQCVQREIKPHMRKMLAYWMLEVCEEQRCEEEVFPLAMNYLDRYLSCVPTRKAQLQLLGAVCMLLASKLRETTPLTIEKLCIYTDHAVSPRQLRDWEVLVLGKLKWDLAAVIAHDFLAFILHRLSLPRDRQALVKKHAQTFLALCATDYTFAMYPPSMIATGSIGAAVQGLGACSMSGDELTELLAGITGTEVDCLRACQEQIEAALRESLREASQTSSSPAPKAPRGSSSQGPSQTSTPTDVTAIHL
Chain of CDK4/Cyclin D1 (P11802 whole entry): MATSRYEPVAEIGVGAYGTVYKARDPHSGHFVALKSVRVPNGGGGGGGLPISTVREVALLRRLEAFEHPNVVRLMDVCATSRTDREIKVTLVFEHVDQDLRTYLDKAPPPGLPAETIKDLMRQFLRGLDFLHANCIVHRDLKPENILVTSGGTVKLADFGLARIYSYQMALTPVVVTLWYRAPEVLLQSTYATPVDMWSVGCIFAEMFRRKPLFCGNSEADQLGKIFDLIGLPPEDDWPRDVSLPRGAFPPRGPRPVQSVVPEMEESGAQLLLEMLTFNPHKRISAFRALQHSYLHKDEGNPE
Chain of CDK4/Cyclin D1 (P24385 whole entry partner): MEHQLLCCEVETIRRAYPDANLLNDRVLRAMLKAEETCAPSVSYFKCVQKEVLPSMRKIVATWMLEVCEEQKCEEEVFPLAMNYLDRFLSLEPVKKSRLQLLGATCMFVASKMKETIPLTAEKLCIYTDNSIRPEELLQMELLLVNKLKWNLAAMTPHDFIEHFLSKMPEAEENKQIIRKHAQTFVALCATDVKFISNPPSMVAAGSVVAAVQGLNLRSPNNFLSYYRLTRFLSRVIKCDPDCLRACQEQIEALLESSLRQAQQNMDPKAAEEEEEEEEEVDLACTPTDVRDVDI

SMILES	IC50 (CDK4/Cyclin D1) [nM]	IC50 (CDK6/Cyclin D3) [nM]
COC(=O)c1ccnc2c(F)cc(-c3nc(N[C@@H]4CCOC[C@H]4O)ncc3F)cc12 [Example A1, methyl 8-fluoro-6-(5-fluoro-2-(((3S,4R)-3-hydroxytetrahydro-2H-pyran-4-yl)amino)pyrimidin-4-yl) quinoline-4-carboxylate]	122	688
C[C@@H](N)c1ccnc2c(F)cc(-c3nc(N[C@@H]4CCOC[C@H]4O)ncc3F)cc12 [Example A7, (3S,4R)-4-((4-(4-((R)-1-aminoethyl)-8-fluoroquinolin-6-yl)-5-fluoropyrimidin-2-yl)amino)tetrahydro-2H-pyran-3-ol]	97	2380
CC(C)(O)c1ccnc2c(F)cc(-c3nc(N[C@@H]4CCOC[C@H]4O)ncc3F)cc12 [Example A2, (3S,4R)-4-((5-fluoro-4-(8-fluoro-4-(2-hydroxypropan-2-yl)quinolin-6-yl)pyrimidin-2-yl)amino)tetrahydro-2H-pyran-3-ol]	12	84
CC(C)(O)c1ccnc2c(F)cc(-c3nc(NC4CCNCC4)ncc3F)cc12 [Example A5, 2-(8-fluoro-6-(5-fluoro-2-(piperidin-4-ylamino)pyrimidin-4-yl)quinolin-4-yl) propan-2-ol]	83	220
CC(C)(C)OC(=O)N1CCC(Nc2ncc(F)c(-c3cc(F)c4nccc(C(C)(C)O)c4c3)n2)CC1 [Example A4, tert-butyl 4-((5-fluoro-4-(8-fluoro-4-(2-hydroxypropan-2-yl)quinolin-6-yl)pyrimidin-2-yl)amino) piperidine-1-carboxylate]	171	1700
Cc1cc(C(C)(C)O)c2cc(-c3nc(N[C@@H]4CCOC[C@H]4O)ncc3F)cc(F)c2n1 [Example A3, (3S,4R)-4-((5-fluoro-4-(8-fluoro-4-(2-hydroxypropan-2-yl)-2-methylquinolin-6-yl)pyrimidin-2-yl)amino)tetrahydro-2H-pyran-3-ol]	33	249
C[C@H](N)c1ccnc2c(F)cc(-c3nc(N[C@@H]4CCOC[C@H]4O)ncc3F)cc12 [Example A6, (3S,4R)-4-((4-(4-((S)-1-aminoethyl)-8-fluoroquinolin-6-yl)-5-fluoropyrimidin-2-yl)amino)tetrahydro-2H-pyran-3-ol]	32	760
